# Assays:
# [1] = system: mouse spleen cells, response to Con A; assay: In vitro Con A assay on spleen cells; assay type: cell-based; details: high ([…]10^6 cells/well) and low (8×10^5 cells/well) cell concentration
# Excerpt: Animals: 8-9 weeks-old Lewis and Brown Norway male rats were obtained from Charles River Laboratories. General procedures for animal care and housing was in accordance with the National Research Council (NRC) Guide for the Care and Use of Laboratory Animals (1996) and the Animal Welfare Standards incorporated in 9 CFR Part 3, 1991.
# Spleens were collected for use in in vitro Con A and LPS assays.
# Results: FIGS. 8 and 9 show the effect of quercetin and tacrolimus on response of mouse spleen cells to Con A at a high (1.6×10^6 cells/well) and low (8×10^5 cells/well) cell concentration, respectively.
# Spleen cells were treated with Con A in the presence of vehicle, tacrolimus, quercetin or two different concentrations of tacrolimus (10^−8.2 and 10^−8.5 M) and increasing doses of quercetin at a high cell concentration (FIG. 14) or at a low cell concentration (FIG. 15). […] There was no significance difference between the effect of quercetin on tacrolimus induced cell suppression in vitro at the different concentrations used for quercetin.
# [2] = liver transplantation, European study, 12-month post-transplant; cited from earlier work
# [3] = cited from earlier work
# [4] = mice, mdr1 gene depleted; cited from earlier work
compound,measurement,setting,value
"C=CC[C@@H]1/C=C(\C)C[C@H](C)C[C@H](OC)C2O[C@@](O)(C(=O)C(=O)N3CCCC[C@H]3C(=O)O[C@H](/C(C)=C/[C@@H]3CC[C@@H](O)[C@H](OC)C3)[C@H](C)[C@@H](O)CC1=O)[C@H](C)C[C@@H]2OC (relative stereo) [Prograf, [3S-[3R[E(1S*,3S*,4S*)], 4S*,5R*,8S*,9E,12R*,14R*,15S*,16R*,18S*,19S*,26aR*]]-,6,8,11,12,13,14,15,16,17,18,19,24,25,26,26a-hexadecahydro-5,19-dihydroxy-3-[2-(4-hydroxy-3-methoxycyclohexyl)-1-methylethenyl]-14,16-dimethoxy-4,10,12,18-tetramethyl-8-(2-propenyl)-15,19-epoxy-3H-pyrido[2,1-c][1,4]oxaazacyclotricosine-1,7,20,21 (4H,23H)-tetrone, monohydrate]",effect on response of spleen cells to Con A (proliferation),[1],inhibited Con A-induced proliferation in a dose dependent manner
same,Adverse event: Abdominal Pain,[2],29%
same,Adverse event: Anemia,[2],5%
same,Adverse event: Anorexia,[2],7%
same,Adverse event: Ascites,[2],7%
same,Adverse event: Asthenia,[2],11%
same,Adverse event: Atelectasis,[2],5%
same,Adverse event: BUN Increased,[2],12%
same,Adverse event: Back Pain,[2],17%
same,Adverse event: Constipation,[2],23%
same,Adverse event: Creatinine Increased,[2],24%
same,Adverse event: Diarrhea,[2],37%
same,Adverse event: Dyspnea,[2],5%
same,Adverse event: Fever,[2],19%
same,Adverse event: Headache,[2],37%
same,Adverse event: Hyperglycemia,[2],33%
same,Adverse event: Hyperkalemia,[2],13%
same,Adverse event: Hypertension,[2],38%
same,Adverse event: Hypokalemia,[2],13%
same,Adverse event: Hypomagnesemia,[2],16%
same,Adverse event: Insomnia,[2],32%
same,Adverse event: Kidney Function Abnormal,[2],36%
same,Adverse event: LFT Abnormal,[2],6%
same,Adverse event: Leukocytosis,[2],8%
same,Adverse event: Nausea,[2],32%
same,Adverse event: Oliguria,[2],19%
same,Adverse event: Pain,[2],24%
same,Adverse event: Paresthesia,[2],17%
same,Adverse event: Peripheral Edema,[2],12%
same,Adverse event: Pleural Effusion,[2],36%
same,Adverse event: Pruritus,[2],15%
same,Adverse event: Rash,[2],10%
same,Adverse event: Thrombocytopenia,[2],14%
same,Adverse event: Tremor,[2],48%
same,Adverse event: Urinary Tract Infection,[2],21%
same,Adverse event: Vomiting,[2],14%
same,"Neurotoxicity, including tremor, headache, and other changes in motor function, mental status, and sensory function","[3]; liver transplant recipients, two randomized studies",approximately 55%
same,proportion of patients reporting more than one adverse event,[3]; two randomized comparative liver transplant trials,99.8%
same,concentration in the brain,[4],markedly increased

# From patent US20080161248A1, “Methods and Compositions for Therapeutic Treatment” (priority 2006, published 2008)
